In PubChem BioAssay (NCI) one finds TGI data, which are given here for 2 compounds.

Holding throughout (experiment): growth of human tumour cells (NCI), 48 h
Assay [1] deals with SR leukemia.
For assay [2], the system named is OVCAR-5 ovarian.
Assay [3] has as its system LOX IMVI melanoma.
Assay [4] relates to M14 melanoma.
For assay [5], the system named is SNB-19 CNS.
The test system of assay [6] is HOP-92 NSCLC.
For assay [7], the system named is HCT-116 colon.
Assay [8] has as its system IGROV1 ovarian.
In assay [9] the test system is SK-MEL-28 melanoma.
In assay [10] the test system is SW-620 colon.

Molecules are shown by their SMILES.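 Dose response: 5 concentrations. Exposure: 48 h. Format: 96-well plates. Endpoint: linear interpolation; highest concentration if not reached. TGI is the concentration that stops growth completely.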 A value given as a limit tells only on which side of the number the result lay.

With `COC1=CCC2=C(CCN(C(=O)C3CCC3)C2Cc2ccc(OC)c(O)c2)C1` (stereo not given), the TGI in assay [1] was above 100 µM; in assay [2], 92 µM; in [3], above 100 µM; in assay [4] it was 78.9 µM; in [5], above 100 µM; in assay [6] it was 79.4 µM. The TGI in [7] is 48.6 µM; in assay [8] it was above 100 µM; in assay [9], above 100 µM; in assay [10] it was above 100 µM.
Take `COc1cc(C)cc(OC)c1/C=C/C(=O)O`: the TGI in assay [1], in assay [2], in [3], in [4], in assay [5] and in assay [6] was above 100 µM throughout. Also, the TGI in assay [7], in assay [8], in assay [9] and in assay [10] was above 100 µM in each case.
